For assay [1], the target named is IL-17A(FLAG-Tagged): IL-17RA(His-Tagged) (Homo sapiens, UniProt Q16552, K93Q). Description: IL-17A(FLAG-Tagged): IL-17RA(His-Tagged) Binding Disruption Eu-HTRF Assay. The following applies: IL-17A/IL-17RA binding disruption, simple average if tested more than once. The method, boiled down: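 IC50 comes from a one-site competition fit of the HTRF 665/620 nm ratio. Compound dilutions (2-fold, 22 points) were held 1 h rt with FLAG-tagged IL-17A dimer, then His-tagged IL-17RA plus Eu-cryptate anti-FLAG and D2 anti-His antibodies were added for 2 h rt.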
UniProt Q16552, sequence (Q16552 with tags, fused parts or gaps K93Q): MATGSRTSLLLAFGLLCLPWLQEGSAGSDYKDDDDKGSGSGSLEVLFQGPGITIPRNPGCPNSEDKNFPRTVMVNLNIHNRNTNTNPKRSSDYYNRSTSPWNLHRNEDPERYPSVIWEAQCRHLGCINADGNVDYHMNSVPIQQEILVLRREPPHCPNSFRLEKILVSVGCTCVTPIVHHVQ

Assay [2] concerns IL-17A-induced G-CSF production in human normal keratinocyte (NHK). Description: NHK Assay: IL-17A-induced G-CSF production in human normal keratinocytes. It is filed as cell-based. The settings on record: 24 h, adult normal human keratinocytes, IL-17A 5 ng/mL, simple average if tested more than once. The method, boiled down: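 G-CSF released by primary adult human keratinocytes after 24 h at 37° C was quantified by HTRF via standard curve to give IC50. Stimulus was 5 ng/mL IL-17A pre-mixed 1 h at rt with compound dilutions, in 5% FBS and 0.2% DMSO. Cell viability was assessed in parallel with CellTiter-Glo.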

What is called IC50 is the concentration at which inhibition is half-maximal. On to `O=C(CCC(F)(F)F)N[C@@H](c1cnn2cc([C@@H](NC(=O)c3cccc(C(F)F)n3)C3CCC(F)(F)CC3)nc2c1)C1CC1` [Example 229, N—((S)-(7-((R)-Cyclopropyl(4,4,4-trifluorobutanamido)methyl)imidazo[1,2-b]pyridazin-2-yl)(4,4-difluorocyclohexyl)methyl)-6-(difluoromethyl)picolinamide], for which the IC50 in assay [1] is 1200 nM; in assay [2] (Homo sapiens, Keratinocyte), greater than 20000 nM.
The like results for `O=C(CCC(F)(F)F)N[C@@H](c1cnn2cc([C@@H](NC(=O)c3ccnc4c3CCC4)C3CCC(F)(F)CC3)nc2c1)C1CC1` [Example 191, N—((S)-(7-((R)-Cyclopropyl(4,4,4-trifluorobutanamido)methyl)imidazo[1,2-b]pyridazin-2-yl)(4,4-difluorocyclohexyl)methyl)-6,7-dihydro-5H-cyclopenta[b]pyridine-4-carboxamide] were, in that order, 290 nM and 1100 nM.
As to `CC(C)n1nccc1C(=O)N[C@H](c1cn2ncc([C@H](NC(=O)CC34CC(F)(C3)C4)C3CC3)cc2n1)C1CCC(F)(F)CC1` [Example 273, N—((S)-(7-((R)-Cyclopropyl(2-(3-fluorobicyclo[1.1.1]pentan-1-yl)acetamido)methyl)imidazo[1,2-b]pyridazin-2-yl)(4,4-difluorocyclohexyl)methyl)-1-isopropyl-1H-pyrazole-5-carboxamide], the IC50 in assay [1] worked out at 160 nM; in assay [2] (Homo sapiens, Keratinocyte), 71 nM.
In the case of `CC(C)(O)Cc1nonc1C(=O)N[C@H](c1cn2ncc([C@H](NC(=O)CC3CC(F)(F)C3)C3CC3)cc2n1)C1CCC(F)(F)CC1` [Example 394, N—((S)-(7-((R)-Cyclopropyl(2-(3,3-difluorocyclobutyl)acetamido)methyl)imidazo[1,2-b]pyridazin-2-yl)(4,4-difluorocyclohexyl)methyl)-4-(2-hydroxy-2-methylpropyl)-1,2,5-oxadiazole-3-carboxamide], the 50% inhibitory concentration (IC50) is 200 nM in assay [1] and 240 nM in assay [2] (Homo sapiens, Keratinocyte).
For `CC(C)n1nncc1C(=O)N[C@H](c1cn2ncc([C@H](NC(=O)CCC(F)(F)F)C3CC3)cc2n1)C1CCC(F)(F)CC1` [Example 65, N—((S)-(7-((R)-Cyclopropyl(4,4,4-trifluorobutanamido)methyl)imidazo[1,2-b]pyridazin-2-yl)(4,4-difluorocyclohexyl)methyl)-1-isopropyl-1H-1,2,3-triazole-5-carboxamide], the half-maximal inhibitory concentration (IC50) came to 110 nM in assay [1] and 72 nM in assay [2] (Homo sapiens, Keratinocyte).
Take `O=C(CCC(F)(F)F)N[C@@H](c1cnn2cc([C@@H](NC(=O)c3cnnn3C3CC3)C3CCC(F)(F)CC3)nc2c1)C1CC1` [Example 68, 1-Cyclopropyl-N—((S)-(7-((R)-cyclopropyl(4,4,4-trifluorobutanamido)methyl)imidazo[1,2-b]pyridazin-2-yl)(4,4-difluorocyclohexyl)methyl)-1H-1,2,3-triazole-5-carboxamide]: the concentration for half-maximal inhibition (IC50) in assay [1] came to 150 nM; in assay [2] (Homo sapiens, Keratinocyte) it was 250 nM.
On to `CC(C)n1nccc1C(=O)N[C@H](c1cn2ncc([C@H](NC(=O)CCCF)C3CC3)cc2n1)C1CCC(F)(F)CC1` [Example 251, N—((S)-(7-((R)-Cyclopropyl(4-fluorobutanamido)methyl)imidazo[1,2-b]pyridazin-2-yl)(4,4-difluorocyclohexyl)methyl)-1-isopropyl-1H-pyrazole-5-carboxamide], for which the IC50 in assay [1] is 200 nM; in assay [2] (Homo sapiens, Keratinocyte), 770 nM.
Taken in the same sequence, the figures for `O=C(CCC(F)F)N[C@@H](c1cnn2cc([C@@H](NC(=O)c3conc3OCC(F)F)C3CCC(F)(F)CC3)nc2c1)C1CC1` [Example 286, N—((S)-(7-((R)-Cyclopropyl(4,4-difluorobutanamido)methyl)imidazo[1,2-b]pyridazin-2-yl)(4,4-difluorocyclohexyl)methyl)-3-(2,2-difluoroethoxy)isoxazole-4-carboxamide] were 310 nM and 7500 nM.
Taken in the same sequence, the figures for `O=C(CCC(F)(F)F)N[C@@H](c1cnn2cc([C@@H](NC(=O)c3nonc3OCC(F)F)C3CCC(F)(F)CC3)nc2c1)C1CC1` [Example 383, N—((S)-(7-((R)-Cyclopropyl(4,4,4-trifluorobutanamido)methyl)imidazo[1,2-b]pyridazin-2-yl)(4,4-difluorocyclohexyl)methyl)-4-(2,2-difluoroethoxy)-1,2,5-oxadiazole-3-carboxamide] were 51 nM and 19 nM.
On to `O=C(CCC(F)(F)F)N[C@@H](c1cnn2cc([C@@H](NC(=O)c3cc(C(F)(F)F)ccn3)C3CCC(F)(F)CC3)nc2c1)C1CC1` [Example 198, N—((S)-(7-((R)-Cyclopropyl(4,4,4-trifluorobutanamido)methyl)imidazo[1,2-b]pyridazin-2-yl)(4,4-difluorocyclohexyl)methyl)-4-(trifluoromethyl)picolinamide], for which the half-inhibitory concentration (IC50) in assay [1] amounted to 410 nM; in assay [2] (Homo sapiens, Keratinocyte), 1800 nM.
As for `CC(C)c1nonc1C(=O)N[C@H](c1cn2ncc([C@H](NC(=O)CC34CC(F)(C3)C4)C3CC3)cc2n1)C1CCC(F)(F)CC1` [Example 279, N—((S)-(7-((R)-Cyclopropyl(2-(3-fluorobicyclo[1.1.1]pentan-1-yl)acetamido)methyl)imidazo[1,2-b]pyridazin-2-yl)(4,4-difluorocyclohexyl)methyl)-4-isopropyl-1,2,5-oxadiazole-3-carboxamide], the concentration for half-maximal inhibition (IC50) is 36 nM in assay [1] and 64 nM in assay [2] (Homo sapiens, Keratinocyte).
For the molecule `CC(O)c1nonc1C(=O)N[C@H](c1cn2ncc([C@H](NC(=O)CC3CC(F)(F)C3)C3CC3)cc2n1)C1CCC(F)(F)CC1` (single isomer, unassigned) [Example 396, N—((S)-(7-((R)-Cyclopropyl(2-(3,3-difluorocyclobutyl)acetamido)methyl)imidazo[1,2-b]pyridazin-2-yl)(4,4-difluorocyclohexyl)methyl)-4-((S*)-1-hydroxyethyl)-1,2,5-oxadiazole-3-carboxamide], the IC50 in assay [1] amounted to 50 nM; in assay [2] it was 190 nM.
As to `O=C(CCC(F)(F)F)N[C@@H](c1cnn2cc([C@@H](NC(=O)c3cccc(OCC(F)F)c3)C3CCC(F)(F)CC3)nc2c1)C1CC1` [Example 168, N—((S)-(7-((R)-Cyclopropyl(4,4,4-trifluorobutanamido)methyl)imidazo[1,2-b]pyridazin-2-yl)(4,4-difluorocyclohexyl)methyl)-3-(2,2-difluoroethoxy)benzamide], the IC50 in assay [1] is 38 nM; in assay [2] (Homo sapiens, Keratinocyte) it was 190 nM.
For the molecule `CCOc1cc(C(=O)N[C@H](c2cn3ncc([C@H](NC(=O)CCC(F)(F)F)C4CC4)cc3n2)C2CCC(F)(F)CC2)ccn1` [Example 177, N—((S)-(7-((R)-Cyclopropyl(4,4,4-trifluorobutanamido)methyl)imidazo[1,2-b]pyridazin-2-yl)(4,4-difluorocyclohexyl)methyl)-2-ethoxyisonicotinamide], the IC50 is 53 nM in assay [1] and 440 nM in assay [2] (Homo sapiens, Keratinocyte).
For the molecule `Cc1nonc1C(=O)N[C@H](c1cn2ncc([C@H](NC(=O)C(C)CC(F)F)C3CC3)cc2n1)C1CCC(F)(F)CC1` (single isomer, unassigned) [Example 330, N—((S)-(7-((R)-Cyclopropyl((R*)-4,4-difluoro-2-methylbutanamido)methyl)imidazo[1,2-b]pyridazin-2-yl)(4,4-difluorocyclohexyl)methyl)-4-methyl-1,2,5-oxadiazole-3-carboxamide], the half-maximal inhibitory concentration (IC50) turned out to be 560 nM in assay [1] and 2200 nM in assay [2].
As to `O=C(CCC(F)(F)F)N[C@@H](c1cnn2cc([C@@H](NC(=O)c3cnccn3)C3CCC(F)(F)CC3)nc2c1)C1CC1` [Example 223, N—((S)-(7-((R)-Cyclopropyl(4,4,4-trifluorobutanamido)methyl)imidazo[1,2-b]pyridazin-2-yl)(4,4-difluorocyclohexyl)methyl)pyrazine-2-carboxamide], the IC50 was 2900 nM in assay [1] and greater than 20000 nM in assay [2] (Homo sapiens, Keratinocyte).
In the case of `CC(C)n1nccc1C(=O)N[C@H](c1cn2ncc(C(NC(=O)CC3(C(F)(F)F)CC3)C3(C#N)CC3)cc2n1)C1CCC(F)(F)CC1` (single isomer, unassigned) [Example 434, N—((S)-(7-((R*)-(1-Cyanocyclopropyl)(2-(1-(trifluoromethyl)cyclopropyl)acetamido)methyl)imidazo[1,2-b]pyridazin-2-yl)(4,4-difluorocyclohexyl)methyl)-1-isopropyl-1H-pyrazole-5-carboxamide], the IC50 in assay [1] was 3300 nM; in assay [2] it was greater than 20000 nM.
Consider `CC(C)c1nonc1C(=O)N[C@H](c1cn2ncc([C@H](NC(=O)CC3CC(F)(F)C3)C3CC3)cc2n1)C1CCC(F)(F)CC1` [Example 281, N—((S)-(7-((R)-Cyclopropyl(2-(3,3-difluorocyclobutyl)acetamido)methyl)imidazo[1,2-b]pyridazin-2-yl)(4,4-difluorocyclohexyl)methyl)-4-isopropyl-1,2,5-oxadiazole-3-carboxamide], for which the IC50 in assay [1] was 24 nM; in assay [2] (Homo sapiens, Keratinocyte), 26 nM.
As for `COCC(NC(=O)CC1CC(F)(F)C1)c1cnn2cc([C@@H](NC(=O)c3nonc3C3CC3)C3CCC(F)(F)CC3)nc2c1` (single isomer, unassigned) [Example 525, 4-Cyclopropyl-N—((S)-(7-((R*)-1-(2-(3,3-difluorocyclobutyl)acetamido)-2-methoxyethyl)imidazo[1,2-b]pyridazin-2-yl)(4,4-difluorocyclohexyl)methyl)-1,2,5-oxadiazole-3-carboxamide], the half-inhibitory concentration (IC50) in assay [1] came to 59 nM; in assay [2], 42 nM.

The values are drawn from patent US11702422B2, “Imidazopyridazines as modulators of IL-17” (Janssen Pharmaceutica NV, priority 2020, dated 2023).
